What was measured:
MIAPACA2 cells = assay: Mito Stress Test (oxygen consumption rate, Seahorse); assay type: cell-based, human; settings: HCT13 25 nM + Cu(II) 20 μM, 24 h
Protocol: FIG. 3A: Mito Stress Test of MIAPACA2 PDAC cells treated with HCT13 (25 nM)+Cu(II) (20 μM) for 24h. FIG. 3B: electron flow assay in isolated mitochondria treated with HCT-13 (100 nM)+Cu(II) (20 μM) for 1h. FIG. 3C: viability of 143 BTK parental (wild type, WT) and ρ0 cells after 48h of the indicated HCT13 concentration+Cu(II) (20 μM) treatment, assessed with Trypan Blue Staining. FIG. 3D: 48h cell cycle histogram and plots of S-phase arrest plots in 143 BTK WT and 143 BTK ρ0 cells at 24, 48 and 72h following treatment with indicated concentrations of HCT13+Cu(II)(20 μM). (mean±SD, n=2, one-way ANOVA corrected for multiple comparisons by Bonferroni adjustment, * P<0.05; ** P<0.01; *** P<0.001). […]
Mito Stress Test and Electron Flow Assay: All oxygen consumption rate (OCR) was measured using a XF24 Analyzer (Agilent) and normalized per μg protein. […] OCR was measured before (total respiration) and after the sequential injection of 1 μM oligomycin (complex V inhibitor), 0.75 μM FCCP (uncoupler), and 1 μM of rotenone and myxothiazol (complex I and III inhibitors, respectively), as described previously (1). Mitochondrial respiration was calculated by subtracting the non-mitochondrial respiration left after rotenone and myxothiazol injection. […] OCR was measured before and after the sequential injections described in the previous paragraph. […]

MIAPACA-2 cells = assay: Nucleotide pool measurement by LC-MS/MS-MRM; assay type: cell-based, human; settings: 25 nM HCT-13 + Cu(II), 48 hours
Protocol: FIGS. 4A-4G show the chemical genomics screen identifying the replication stress response pathway as an actionable co-dependency of HCT13-treated cells. FIG. 4A: experimental design of a synthetic lethality screen using a library of protein kinase inhibitors against HCT13-treated cells in the presence of Cu(II) (20 μM). FIG. 4B: radar plot of screen results. FIG. 4C: z-score values for kinase inhibitors within the DNA damage response/replication stress response (DDR/RSR) pathway module. FIG. 4D: representative immunoblot of replication stress and cell death biomarkers in MIAPACA2 PDAC cells treated with HCT13 (10 nM)+Cu(II) (20 μM). […]
These observations are indicative of DDR/RSR pathway activation, which was hypothesized to arise from nucleotide insufficiency and/or, given the ability of copper to generate ROS, from ROS-mediated DNA damage. […] To test the former hypothesis, nucleotide levels were measured in treated and non-treated cells using liquid chromatography-tandem mass spectrometry with multiple reaction monitoring (LC-MS/MS-MRM) as previously described by Le et al, Nature Communications 2017, 8(1):1-14. […] These findings indicate that HCT-13 preferentially decreases the dGTP and rGTP pools, potentially via oxidative processes as guanine is the most readily oxidized nucleobase. […]

143 BTK WT cells = assay: Cell cycle analysis in 143 BTK WT cells; assay type: cell-based; settings: HCT13 + Cu(II) 20 μM
Protocol: FIG. 3A: Mito Stress Test of MIAPACA2 PDAC cells treated with HCT13 (25 nM)+Cu(II) (20 μM) for 24h. FIG. 3B: electron flow assay in isolated mitochondria treated with HCT-13 (100 nM)+Cu(II) (20 μM) for 1h. FIG. 3C: viability of 143 BTK parental (wild type, WT) and ρ0 cells after 48h of the indicated HCT13 concentration+Cu(II) (20 μM) treatment, assessed with Trypan Blue Staining. FIG. 3D: 48h cell cycle histogram and plots of S-phase arrest plots in 143 BTK WT and 143 BTK ρ0 cells at 24, 48 and 72h following treatment with indicated concentrations of HCT13+Cu(II)(20 μM). (mean±SD, n=2, one-way ANOVA corrected for multiple comparisons by Bonferroni adjustment, * P<0.05; ** P<0.01; *** P<0.001).
Another HCT compound, Dp44mT, was reported to increase AMPK expression and induce ROS, although its cytotoxicity was not attributed to the functionality of the mitochondria. (Ref 50). To determine whether the cytotoxicity of HCT13 was mitochondria-dependent, its effects upon 143 BTK ρ0, an mtDNA-deficient fibroblast cell line, was examined. Both 143 BTK ρ0 and parental (wild type, WT) cells were treated with HCT13+20 μM Cu(II) for 48 hours, after which cell viability was determined through trypan blue staining (FIG. 3C).
Cell cycle: Cell cycle was assessed using Propidium iodide staining at indicated timepoints. Cells were pulsed with EdU 1 h before collection at different time points. […]

CN(C)C(=S)N/N=C/c1nccc2cc(F)ccc12 (mixture of isomers) [HCT13, (E)-2-((6-Fluoroisoquinolin-1-yl)methylene)-N,N-dimethylhydrazine-1-carbothioamide and (Z)-2-((6-Fluoroisoquinolin-1-yl)methylene)-N,N-dimethylhydrazine-1-carbothioamide]
basal respiration and maximum respiratory capacity (OCR) (MIAPACA2 cells): significantly reduced | basal respiration and maximum respiratory capacity (OCR) (MIAPACA2 cells; listed as HCT-13): decreased significantly | dGTP and rGTP pools (MIAPACA-2 cells): decreased | S-phase arrest (143 BTK WT cells): marked S-phase arrest

From patent US12528774B2, “Thiosemicarbazone compounds and uses thereof” (The Regents of the University of California, priority 2019, dated 2026)
